Patent publication US20110192396A1, “PHARMACEUTICAL COMPOSITION FOR PREVENTING OR TREATING CHRONIC OBSTRUCTIVE PULMONARY DISEASE” (DAEWOONG CO., LTD., priority 2008, published 2011)

Tests used:
[1] = system: MUC5AC gene expression in NCI-H292 cells; test: Suppression of MUC5AC mucus gene expression in PA-LPS/TGF-α-treated NCI-H292 cells (real time PCR); assay type: cell-based, human; conditions: 50 ng/mL EGF; NCI-H292 cells pre-treated with PA-LPS and TGF-α for 6 hours; vs control with PA-LPS and TGF-α only
Experimental: NCI-H292 cells (ATCC, CRL-1848) were divided into a 6-well plate such that the number of the NCI-H292 cells per well was 10^6. The NCI-H292 cells were incubated in a 5% CO2 incubator at 37° C. for one day. The NCI-H292 cells were incubated in a serum free medium for one day, and then treated with 100 mg/mL of Pseudomonas aeruginosa lipopolysaccharide (PA-LPS, Sigma L8643) and 10 ng/mL of a transforming growth factor-alpha (TGF-α R&D systems 239-a-100) at the same time for 6 hours to induce overexpression of MUC5AC mucus. The PA-LPS and TGF-α were removed, and epidermal growth factors (EGFs) having different concentrations were added to the NCI-H292 cells. […]
RNA was isolated using a kit manufactured by QIAGEN (RNeasy Plus Mini Kit, 74134) according to the manuals provided by the manufacturer in order to isolate entire RNA. Absorbance of the isolated RNA was measured using a spectrophotometer at a wavelength of 260 nm to quantitatively analyze RNA. […]
A SYBR green assay was performed by adding cDNA, a forward primer, and a reverse primer to 12.5 mL of a SYBR green PCR master mix (Applied Biosystems, 4309155) such that the total volume of the mixture was set to 25 mL. […] The determined concentrations of the primers for MUC5AC, ICAM-1, RPL1 were respectively 900 nM, and the concentration β-ACT thereof was 300 nM. […]

[2] = system: MLE-12 cells; test: Protection of alveolar cells from elastase cell toxicity, neutral red uptake (NRU) assay; assay type: cell-based, murine; conditions: 100 μg/mL EGF; 2 U/mL elastase; elastase only = 100%, medium only = 0% cell toxicity
Experimental: MLE-12 cells were divided into a 96-well plate such that the number of MLE-12 cells per well was […]. The MLE-12 cells were incubated in 5% CO2 incubator at 37° C. for one day. […] A neutral red uptake (NRU) assay was performed using a neutral red that dyes only living cells to measure the degree of cell death. […] The cells were fixed using a fixing solution (1% formaldehyde, 1% CaCl2) for 1 minute, and the neutral red dye reagent was extracted using a chromogenic solution including 50% ethanol and 1% glacial acetic acid. Then, light absorbance was measured at a wavelength of 540 nm.

[3] = system: PPE-induced emphysema model; test: PPE-induced rat emphysema model, histopathological examination of lung and trachea; assay type: in vivo, Sprague-Dawley rats
Experimental: 6-week old male Sprague-Dawley rats (Japan SLC, Inc) having an average weight ranging from 200 to 250 g were accommodated for 1 week to prepare 7-week old rats. The rats were raised in individual ventilated cage (IVC) racks (GR900 plus rat cage, Polysulfone, 355 W×405 I×230 H mm) at a constant temperature (22±3° C.) at a constant relative humidity (55±15%) using fluorescent lamps (lights are on 08:00 to 20:00) for 12 hours, and food and water were fed ad libitum (solid feed 5L79, Orient Co., Ltd.). 120 U/kg, 1 mL/kg of pig pancreas elastase (PPE, Merck 324682) was administered once by intratracheal instillation to rats anesthetized with isoflurane. 1 mL/kg of 0.9% saline was administered once by intratracheal instillation to rats in the group in which emphysema was not induced. In order to uniformly administer test article into lung cavity, the same amount of air as the administered substances was administered during the intratracheal instillation. […] After 7 weeks from the PPE administration, the rats were anesthetized with isoflurane, and the lung and the trachea were isolated and fixed using 10% neutral formalin. Then histopathological examination of the lung and the trachea were performed and microscopic images were obtained. The test results were represented as average ±standard deviation. In order to detect a test group statistically significant from a control group, the results were statistically tested using one way ANOVA, and significance was analyzed using a multiple comparison method. […] In addition, FIGS. 7 and 8 illustrated the results of the tissue pathological tests of tracheas and lungs with a table.

[4] = G3: 0.1 mg/kg EGF intratracheal instillation, once a week for 3 weeks, rats

Question: How did the “reduction of expression of MUC5AC” value [1] turn out when “EGF: recombinant proteins having the same amino acid sequence as natural human epidermal growth factor (hEGF); 53 amino acids, SEQ ID NO: 1” was run?
Answer: The value was 65%.

Question: And the “reduction of cell toxicity” value [2]?
Answer: The value was “about 15%”.

Question: What about the “degree and number of enlargement and breakdown of alveoli compared with the control group of PPE-induced emphysema model” value ([3]; G3, group with emphysema treated with EGF) of the same substance?
Answer: Its value is “reduced”.

Question: And the “cases with mild breakdown of alveoli” value [3, 4]?
Answer: The value was 3 cases.

Question: What about the “cases with mild enlargement of alveoli” value [3, 4] of the same substance?
Answer: The value was 3 cases.

Question: What about the “cases with moderate breakdown of alveoli” value [3, 4] of the same substance?
Answer: Its value is 1 case.

Question: What about the “cases with moderate enlargement of alveoli” value [3, 4] of the same substance?
Answer: The value was 1 case.

Question: And the “cases with very mild breakdown of alveoli” value [3, 4]?
Answer: The value was 1 case.

Question: What about the “cases with very mild enlargement of alveoli” value [3, 4] of the same substance?
Answer: The value was 2 cases.

Question: What about the “cases with very mild histiocytosis” value [3, 4] of the same substance?
Answer: The value was 1 case.
